Assay results published in patent US5407951A, “Sulphonamidocycloalkane compounds, pharmaceutical compositions containing them, and methods of use thereof” (Boehringer Mannheim GmbH, priority 1988, dated 1995).

Key:
[1] = test system: Platelet-rich human blood plasma; experiment: In vitro inhibition of platelet aggregation induced by thromboxane mimetic U46619 (Born and Cross, aggregometer); format: cell-based; settings: citrated platelet-rich human plasma, measured for five minutes
Method: (a) In vitro Inhibition of Platelet Aggregation.
Platelet-rich human blood plasma was treated with 3.2% citrate at a volume ratio of 1:9 to inhibit clotting. A selective thromboxane mimetic, U46619, which is a stable analog of the prostaglandin endoperoxide PGH2, as described by Coleman et al., Brit. J. Pharmocol. 68,127P (1980) was obtained from Upjohn & Co., Kalamazoo, Mich.
The test protocol was that described by Born and Cross, J. Physiol. 168,178 (1963) with the degree of aggregation measured using a 4-channel aggregometer (Profiler, Bio/Data Co.). The compounds of this invention, Examples 2.1, 4(cis) 4(trans), 6 ad 7 were diluted in saline, at final concentrations of 10^-4 to 10^-9M. Saline was used as a control. Measurements were made for a period of five minutes, After addition of the tromboxane mimetic. From the data obtained, an inhibitory concentration IC50 was calculated using standard methods.

Male NMRI mice = experiment: In vivo inhibition of induced pulmonary emboli (survival after lethal dose of U46619); settings: lethal dose U46619 (800-1000 ug/kg) into tail vein four hours later, survival after 24 hours, groups of 5; for Survival Rate of Mouse 1 mg/kg, 4 h in %: 1 mg/kg by gastric route in 1% methyl cellulose; for Survival Rate of Mouse 25 mg/kg, 4 h in %: 25 mg/kg by gastric route in 1% methyl cellulose
Method: (b) In vivo Inhibition of Induced Pulmonary Emboli
Male NMRI mice, having a body weight of approximately 25g, were separated into groups of 5. Representative examples of the compounds of this invention listed in part (a) were suspended 1% methyl cellulose and administered to the animals by gastric incubation in amounts providing 1/mg/kg and 25/mg/kg of the antagonist, Four hours after incubation, a previously determined lethal dose of U46619 (800-1000 ug/kg) was injected into the tail vein of each animals. The survival rates for each group of mice was determined after 24 hours. The results are shown in Table 1 and indicate correlation with the IC50 measured in vitro.

SMILES | IC50 [1] [nM] | Survival Rate of Mouse 1 mg/kg, 4 h in % (Male NMRI mice) [%] | Survival Rate of Mouse 25 mg/kg, 4 h in % (Male NMRI mice) [%]
O=C(CO[C@H]1CC[C@@H](CCNS(=O)(=O)c2ccc(Cl)cc2)CC1)Nc1nnn[nH]1 [4 (cis), cis-4-[2-(4-Chlorobenzenesulphonylamino)-ethyl]cyclohexyloxyacetic acid (tetrazol-5-yl)-amide] | 4600 | 100 | 100
O=C(CO[C@H]1CC[C@H](CCNS(=O)(=O)c2ccc(Cl)cc2)CC1)Nc1nnn[nH]1 [4 (trans), trans-4-[2-(4-chlorobenzenesulphonylamino)-ethyl]-cyclohexyloxy acetic acid (tetrazol-5-yl-amide)] | 5800 | 60 | 100
O=C(O)C1CCC(CCNS(=O)(=O)c2ccc(Cl)cc2)CC1 (stereo not drawn) [Example 2.1] | 2000 | 100 | 100
O=C(CC1CCC(CCNS(=O)(=O)c2ccc(Cl)cc2)CC1)Nc1nnn[nH]1 (stereo not drawn) [Example 6, 4-[2-(4-Chlorobenzenesulphonylamino)-ethyl]-cyclohexylacetic acid (tetrazol-5-yl-amide)] | 2500 | 100 | 100
O=S(=O)(NCCC1CCC(OCc2nn[nH]n2)CC1)c1ccc(Cl)cc1 (stereo not drawn) [Example 7, 1-[2-(4-Chlorobenzenesulphonylamino)-ethyl]-4-(tetrazol-5-yl-methyleneoxy)-cyclohexane] | 420 | 100 | 100
